Test results as given in ChEMBL document CHEMBL5352486, “Design, synthesis, in vitro - In vivo biological evaluation of novel thiazolopyrimidine compounds as antileishmanial agent with PTR1 inhibition” (Eur J Med Chem, 2023).
pIC50: −log10 of the molar value. In brackets after ≈: the same amount, converted by molar mass.

Key:
Leishmania tropica [1] = experiment: Antileishmanial activity against Leishmania tropica MHOM/A7/1974/SAF-K27 incubated for 48 hrs by Neubauer hemocytometer analysis; assay type: functional, organism-based; conditions: MHOM/A7/1974/SAF-K27, 48 h
Leishmania infantum [2] = experiment: Antileishmanial activity against Leishmania infantum MHOM/TN/1980/IPT1 incubated for 48 hrs by Neubauer hemocytometer analysis; assay type: functional, organism-based; conditions: MHOM/TN/1980/IPT1, 48 h
Leishmania tropica [3] = experiment: Antileishmanial activity against Leishmania tropica MHOM/A7/1974/SAF-K27 incubated for 48 hrs by XTT method; assay type: functional, organism-based; conditions: MHOM/A7/1974/SAF-K27, 48 h
Leishmania infantum [4] = experiment: Antileishmanial activity against Leishmania infantum MHOM/TN/1980/IPT1 incubated for 48 hrs by XTT method; assay type: functional, organism-based; conditions: MHOM/TN/1980/IPT1, 48 h
Pteridine reductase 1 = target: T1, Pteridine reductase 1 (Leishmania major, UniProt Q01782); experiment: Inhibition of recombinant Leishmania major PTR1 expressed in Escherichia coli BL21 using folic acid as substrate in presence of NADPH
T1 sequence (Q01782 whole entry): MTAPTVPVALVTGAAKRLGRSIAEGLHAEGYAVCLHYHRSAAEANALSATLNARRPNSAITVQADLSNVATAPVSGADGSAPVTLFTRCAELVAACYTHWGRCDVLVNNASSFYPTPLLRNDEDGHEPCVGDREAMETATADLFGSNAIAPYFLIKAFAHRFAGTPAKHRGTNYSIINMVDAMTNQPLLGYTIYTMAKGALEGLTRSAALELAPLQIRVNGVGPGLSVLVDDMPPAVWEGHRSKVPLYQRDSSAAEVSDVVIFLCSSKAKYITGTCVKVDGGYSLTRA

Dihydrofolate reductase = target: T2, Dihydrofolate reductase (Homo sapiens, UniProt P00374); experiment: Inhibition of human DHFR using dihydrofolate as substrate in presence of NADPH; assay type: toxicity
T2 sequence (P00374 whole entry): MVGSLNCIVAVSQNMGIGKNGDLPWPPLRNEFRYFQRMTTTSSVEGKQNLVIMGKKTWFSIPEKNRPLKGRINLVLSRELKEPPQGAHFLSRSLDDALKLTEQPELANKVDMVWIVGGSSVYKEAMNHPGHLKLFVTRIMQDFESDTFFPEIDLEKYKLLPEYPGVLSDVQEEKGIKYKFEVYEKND

[5] = tested on: DHFR (human) versus PTR1 (Leishmania major); experiment: Selectivity index, ratio of IC50 for human DHFR to IC50 for Leishmania major PTR1; assay type: toxicity; conditions: human DHFR enzyme and Leishmania major PTR1 enzyme, read-out: Ratio IC50
[6] = (§1) Cytotoxicity against mouse L929 cells by alamar blue method; assay type: toxicity, cell-based; conditions: mouse, L929 cells
L929 = experiment: as §1; assay type: toxicity, cell-based; conditions: l929
[7] = (§2) Cytotoxicity against mouse RAW264.7 cells by alamar blue method; assay type: toxicity, cell-based; conditions: mouse, RAW264.7 cells
RAW264.7 = experiment: as §2; assay type: toxicity, cell-based; conditions: raw264.7

Molecule O=C(Nc1nc2cnc(N3CCCC3)nc2s1)c1ccc(Cl)c([N+](=O)[O-])c1 has an IC50 (Leishmania tropica [1]) of 10.2 µg/mL (≈ 25.1 µM), an IC50 (Leishmania infantum [2]) of 12.3 µg/mL (≈ 30.3 µM) and an IC50 (Leishmania tropica [3]) of 10.6 µg/mL (≈ 26.2 µM). The IC50 (Leishmania infantum [4]) was 12.7 µg/mL (≈ 31.3 µM), the pIC50 (Pteridine reductase 1) was 4.83 and the pIC50 (Dihydrofolate reductase) was 3.43. For the same molecule, the selectivity ratio [5] was 25.1, the IC50 [6] was 24.4 µg/mL (≈ 60.2 µM) and the “log10 IC50 (µg/mL)” value (L929) was 1.39. For the same molecule, the IC50 [7] was 8.98 µg/mL (≈ 22.2 µM) and the “log10 IC50 (µg/mL)” value (RAW264.7) was 0.95.
